The source of these data is PubChem BioAssay AID1648 (Sanford-Burnham Center for Chemical Genomics, 2009).

Structures are written as SMILES. Active and inactive are the calls of the source. How the calls were made is not given here.

For the test, the target named is Serine/threonine-protein kinase mTOR (Homo sapiens) (UniProt P42345). Kind of test: mTOR FRB domain ligand binding – biophysical, NMR (AID 1648). As to conditions: NMR binding to FRB domain, chemical shift.
Sequence of Serine/threonine-protein kinase mTOR (Homo sapiens) (P42345 2015-2114): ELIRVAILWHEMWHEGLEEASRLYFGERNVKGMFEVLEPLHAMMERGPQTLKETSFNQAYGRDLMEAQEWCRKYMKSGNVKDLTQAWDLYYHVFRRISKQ
As a reminder, the Kd is the free concentration of one partner at which half of the binding sites on the other are occupied at equilibrium, for simple one-to-one binding. For the molecule `O=C(O)CN1C(=O)c2cccc([N+](=O)[O-])c2C1=O`, the Kd is > 4 mM (inactive).

Consider `Nc1ncnc2c1ncn2CCOc1ccccc1`, for which the Kd is > 4 mM (inactive).

Consider `O=c1ccc2nc3ccccc3c(=O)n2[nH]1`, for which the Kd was > 4 mM (inactive).

Take `CC(C)CC(=O)NC1CCSC1=O` (centres undefined): the Kd was > 4 mM (inactive).

As to `COC(=O)C[C@@H]1C2(C)C(=O)[C@@H](CC3=C4CC(=O)O[C@@H](c5ccoc5)[C@]4(C)CCC32)[C@H](OC(C)=O)C1(C)C` (some centres undefined), the Kd was > 4 mM (inactive).

Consider `CC1(C)C2CC(=O)[C@]3(C)C(CC[C@@]4(C)[C@H](c5ccoc5)OC(=O)C5OC543)[C@@]2(C)[C@@H](O)C[C@H]1O` (some centres undefined), for which the Kd was > 4 mM (inactive).

In the case of `COc1ccc(-c2coc3c(O)c(OC)ccc3c2=O)cc1`, the Kd is > 4 mM (inactive).

Turning to `COc1cc2ccc(=O)oc2c2ccoc12`, the Kd was > 4 mM (inactive).

Regarding `CCc1ccccc1NC(=O)c1ccoc1C`, the Kd was > 4 mM (inactive).

With `FC(F)(F)c1nnc2ccc(N3CCOCC3)nn12`, the Kd was > 4 mM (inactive).

`CCSc1nc(C)c(CC)c(C)c1C(N)=O`: the Kd is > 4 mM (inactive).

For `Oc1cccc(N2CCOCC2)c1`, the Kd is > 4 mM (inactive).

For the molecule `O=C(O)C1CNc2ccccc2O1` (centres undefined), the Kd is > 4 mM (inactive).

Consider `COC[C@]12CN(C=O)C3[C@@H]4[C@H](OC)C1[C@]3(C1CC3(O)C(OC)C(O)C4(OC(C)=O)C1C3OC(=O)c1ccccc1)[C@@H](OC)C[C@H]2O` (some centres undefined), for which the Kd was > 4 mM (inactive).

Regarding `NC(=O)c1ccc(NC(=O)C2CC2)cc1`, the Kd was > 4 mM (inactive).

As for `CSc1ccccc1NC(=O)c1ccco1`, the Kd was > 4 mM (inactive).

`COc1ccc(/C=C2\SC(N)=NC2=O)cc1`: the Kd is > 4 mM (inactive).

In the case of `COC(=O)c1[nH]c2ccccc2c1C(=O)OC`, the Kd was > 4 mM (inactive).

Regarding `O=C(c1cccs1)N1CCCc2ccccc21`, the Kd is > 4 mM (inactive).

With `CN1CCCCC1c1ccc(-c2cccnc2)nc1` (centres undefined), the Kd is > 4 mM (inactive).

Turning to `CC(C)/C(O)=C1/C(=O)O[C@@H](c2ccoc2)[C@]2(C)C(O)[C@@H](O)[C@@]34OC5(C)OC67CC(C)(C(O)[C@]6(O)[C@@H](O)[C@]3(O5)C12)[C@H](CC(=O)O)[C@]74C` (some centres undefined), the Kd was > 4 mM (inactive).

Consider `Cc1ccc(CN2CCN(C(=O)C3CCC3)CC2)cc1`, for which the Kd was > 4 mM (inactive).

Regarding `O=C(NCO)c1ccccc1Cl`, the Kd is > 4 mM (inactive).

For `CCCc1ncc(C(O)c2cccc3ccccc23)n1C` (centres undefined), the Kd is > 4 mM (inactive).

Consider `O=C(c1nc2ncccn2n1)N1CCc2ccccc2C1`, for which the Kd was > 4 mM (inactive).

In the case of `COc1ccccc1NC(=O)c1ccc(Br)o1`, the Kd is > 4 mM (inactive).

Regarding `COc1cc2c(cc1OC)-c1cc3ccc(OC)c(OC)c3c[n+]1CC2`, the Kd was > 4 mM (inactive).

On to `Cc1cc([N+](=O)[O-])cc[n+]1[O-]`, for which the Kd was > 4 mM (inactive).

Take `Cc1nnc(N2CCc3ccccc3C2)[nH]c1=O`: the Kd is > 4 mM (inactive).

In the case of `O=C1NC(=O)C2C3C=CC(O3)C12` (centres undefined), the Kd was > 4 mM (inactive).

As for `COc1ccc(NS(=O)(=O)c2ccc(N)cc2)nn1`, the Kd is > 4 mM (inactive).

Regarding `O=C(O)C1CSC(c2ccccc2)N1` (centres undefined), the Kd is > 4 mM (inactive).

Take `S=C(NCC1CCCO1)NC1CC1` (centres undefined): the Kd is > 4 mM (inactive).

In the case of `Cc1cc2ncc(C(=O)O)c(C)n2n1`, the Kd was > 4 mM (inactive).

On to `COc1cccc(C(=O)Nc2c(C)n[nH]c2C)c1`, for which the Kd is > 4 mM (inactive).

Consider `O=C(O)c1ccc2c(c1)CCO2`, for which the Kd is > 4 mM (inactive).

Consider `CS(=O)(=O)NC1CCN(Cc2ccccc2)CC1`, for which the Kd was > 4 mM (inactive).

Turning to `COC(=O)c1ccc2nccnc2c1`, the Kd is > 4 mM (inactive).

Regarding `COc1cc([C@@H]2c3cc4c(cc3C(OC3O[C@@H]5COC(C)O[C@H]5[C@H](O)[C@H]3O)C3COC(=O)[C@@H]32)OCO4)cc(OC)c1O` (some centres undefined), the Kd is > 4 mM (inactive).

As for `CNC(=O)COc1cccc2c1CCNC2=O`, the Kd was > 4 mM (inactive).

In the case of `COC(=O)c1ccc(C(=S)N2CCOCC2)cc1`, the Kd is > 4 mM (inactive).

`CCCC(=O)N1CCSCC1`: the Kd is > 4 mM (inactive).

Regarding `CSc1nnc2ccc(-c3cccnc3)nn12`, the Kd is > 4 mM (inactive).

`COCC(=O)Nc1ccc(F)cc1F`: the Kd was > 4 mM (inactive).

Regarding `[O-][n+]1c2ccccc2[n+]([O-])c2cc(O)ccc21`, the Kd was > 4 mM (inactive).

Consider `COc1cccc2c1CCC1=CC(=O)CC[C@@]12C`, for which the Kd is > 4 mM (inactive).

With `COc1ccc2cc3[n+](cc2c1OC)CCc1cc2c(cc1-3)OCO2`, the Kd was > 4 mM (inactive).

For the molecule `CCCCCCCCCCCCCc1ccco1`, the Kd was > 4 mM (inactive).

Take `CCC(C)C(=O)O[C@@H]1C[C@@]2(C)[C@H](c3ccoc3)OC(=O)CC23OC2(C)OC34[C@H](OC(=O)C(C)C)[C@@]3(O)[C@@H](OC(=O)C5(C)OC5C)[C@@]5(C)C[C@]3(O)[C@@](C)([C@H]5CC(=O)OC)C14O2` (some centres undefined): the Kd was > 4 mM (inactive).

In the case of `O=C(c1ccco1)N1CCN(c2ccc(Cl)cc2)CC1`, the Kd is > 4 mM (inactive).

`O=C(O)Cn1nc(-c2ccccc2)c2ccccc2c1=O`: the Kd is > 4 mM (inactive).

For `Cc1cc(C(=O)Nc2cccnc2)no1`, the Kd is > 4 mM (inactive).

Take `Cc1cc(N)on1`: the Kd was > 4 mM (inactive).

With `CC1(C)C=CC(=O)[C@@]2(C)C1CC(=O)[C@]1(C)C2CC[C@@]2(C)[C@H](c3ccoc3)OC(=O)C3OC321` (some centres undefined), the Kd is > 4 mM (inactive).

Consider `C=CC(C1=CC(=O)C=CC1=O)c1ccccc1` (centres undefined), for which the Kd was > 4 mM (inactive).

Regarding `CN1CCc2c(sc(N)c2C#N)C1`, the Kd is > 4 mM (inactive).

Regarding `Cc1occc1C(=O)Nc1ccc(C(N)=O)cc1`, the Kd was > 4 mM (inactive).

As to `O=C1OCCC1Sc1nc2ccccc2c(=O)[nH]1` (centres undefined), the Kd was > 4 mM (inactive).

Regarding `COC(=O)CC1C(C)(C)C(OC(C)=O)[C@@H]2[C@@H](OC(C)=O)[C@]34O[C@@]2(O)[C@]1(C)C3CC[C@]1(C)C4=CC(=O)O[C@H]1c1ccoc1` (some centres undefined), the Kd was > 4 mM (inactive).

On to `CC(CCC(=O)O)[C@H]1CCC2C3CC[C@@H]4C[C@H](O)CC[C@]4(C)C3C[C@H](O)[C@@]21C` (some centres undefined), for which the Kd is > 4 mM (inactive).

On to `CCP(=O)(CC)c1cccc(C)c1`, for which the Kd is > 4 mM (inactive).

Consider `O=C(Nc1ccccc1)Nc1ccccc1`, for which the Kd is > 4 mM (inactive).

For `CN1CCN(CC(=O)NC2CCCCC2)CC1`, the Kd is > 4 mM (inactive).

In the case of `CC1(C)CC(=O)c2cnn(-c3nc4ccccc4[nH]3)c2C1`, the Kd was > 4 mM (inactive).

In the case of `Cn1nnc2cc(C(=O)NC3CCCCC3)ccc21`, the Kd is > 4 mM (inactive).

`COC(=O)CC1NC2CCCCC2NC1=O` (centres undefined): the Kd was > 4 mM (inactive).

As to `CC1=[N+]([O-])C2(N)CCc3c(no[n+]3[O-])C2(O)C1` (centres undefined), the Kd is > 4 mM (inactive).

Regarding `CC(C)CCn1cnc2c1c(=O)n(C)c(=O)n2C`, the Kd was > 4 mM (inactive).

As to `COc1cc(C)c(Cl)cc1S(=O)(=O)N(C)C`, the Kd is > 4 mM (inactive).

For `COC(=O)[C@@H]1OC(=O)C2OC23[C@@]1(C)CCC1[C@@]2(C)CCC(=O)C(C)(C)C2C[C@@H](OC(C)=O)[C@]13C` (some centres undefined), the Kd is > 4 mM (inactive).

Turning to `Cc1ccc2c(c1)CCCN2C(=O)c1ccncc1`, the Kd was > 4 mM (inactive).

For `O=C(OCc1c(F)cccc1Cl)c1cnccn1`, the Kd was > 4 mM (inactive).

On to `Nc1cc(=O)[nH]c(=S)n1-c1cccc(C(F)(F)F)c1`, for which the Kd is > 4 mM (inactive).

With `NC(=S)N1CCC(c2ccccc2)=N1`, the Kd is > 4 mM (inactive).

Regarding `O=C(O)c1cccc2c1OCCCO2`, the Kd is > 4 mM (inactive).

For the molecule `C=C[C@@H](C1=CC(=O)C(OC)=C(OC)C1=O)c1ccccc1`, the Kd is > 4 mM (inactive).

For `CC(=O)Nc1cccc(-c2n[nH]c(=S)n2C)c1`, the Kd was > 4 mM (inactive).

`COC(=O)C[C@H]1C(C)(C)C(OC(C)=O)[C@]2(O)C=C3C(CC[C@]4(C)C3CC(=O)O[C@H]4c3ccoc3)C1(C)C2=O` (some centres undefined): the Kd was > 4 mM (inactive).

Regarding `COc1cc([C@@H]2c3cc4c(c(O)c3C[C@H]3COC(=O)[C@@H]32)OCO4)cc(OC)c1OC`, the Kd was > 4 mM (inactive).

On to `CC(=O)O[C@@H]1CC[C@@]2(C)C(CC[C@]3(C)C2CC=C2C4CC(C)(C)CC[C@]4(C(=O)O)CC[C@]23C)C1(C)C` (some centres undefined), for which the Kd was > 4 mM (inactive).

Regarding `CC(C)NC(=O)c1nc2ccccc2s1`, the Kd is > 4 mM (inactive).

For the molecule `O=c1oc(-c2ccccc2)nc2c1cnn2-c1ccccc1`, the Kd is > 4 mM (inactive).

In the case of `OC[C@H]1O[C@@H](n2cnc3c(NCc4ccco4)ncnc32)[C@H](O)[C@@H]1O`, the Kd is > 4 mM (inactive).

For the molecule `COCC(=O)Nc1cccc(Br)c1`, the Kd was > 4 mM (inactive).

With `CN1CCC=C(C(=O)O)C1`, the Kd was > 4 mM (inactive).

`O=C1c2ccncc2C(=O)N1CNc1ccccn1`: the Kd was > 4 mM (inactive).

For the molecule `CSc1nnc2c(n1)OC(C)=Nc1ccccc1-2`, the Kd was > 4 mM (inactive).

Take `CC1(C)C(=O)[C@@H]2O[C@@H]2[C@@]2(C)C1C[C@@H](O)[C@]1(C)C2CC[C@@]2(C)[C@H](c3ccoc3)OC(=O)C3OC321` (some centres undefined): the Kd is > 4 mM (inactive).

For `OC1CCNC2CCCCC12` (centres undefined), the Kd was > 4 mM (inactive).

In the case of `COC1C(O)C(O)C(O)[C@@H](O)C1O` (some centres undefined), the Kd is > 4 mM (inactive).

For `Cc1ccc(C(=O)Nc2ccncc2)o1`, the Kd was > 4 mM (inactive).

Consider `CC(C)(C)C(=O)Nc1nnc(SCC(N)=O)s1`, for which the Kd was > 4 mM (inactive).

Regarding `COc1ccc(C(=O)/C=C/c2ccccc2)cc1`, the Kd was > 4 mM (inactive).

With `O=C(NCc1cccc(Cl)c1)c1cccnc1`, the Kd is > 4 mM (inactive).
